In patent US20260285835A1, “SOLID FORM OF PYRROLIDONE DERIVATIVE AS GLUCOKINASE ACTIVATOR” (priority 2023, published 2026):
Read-outs that look alike come from different tables or passages of the source.

Legend:
[1] = type: in vivo; details: rats
Experimental: Each group was divided into 2 subgroups (intravenous bolus group (IV) and gavage group (PO)).
Whole blood samples (about 0.2 mL per time point) were collected at pre-dose (0), 0.083, 0.25, 0.5, 1, 2, 4, 8, 12, and 24 hours post-dose by jugular vein puncture. All the blood samples were immediately transferred into labeled pre-chilled commercial microcentrifuge tubes containing 4 μL of 0.5M K2-EDTA and 10 μL of cocktail stabilizer. Samples were placed on wet ice until centrifugation (within 30 min). Plasma samples were then prepared by centrifuging the blood samples at approximately 4° C., 3200×g for 10 minutes. Supernatant plasma was pipetted, then quickly frozen over dry ice, and then kept at −60° C. or lower temperature until LC-MS/MS analysis. The cocktail stabilizer was prepared according to the following Table 8:
The plasma concentrations were subjected to a non-compartmental pharmacokinetic analysis by using the WinNonlin™ software program (version 6.3).

[2] = Simulated metabolic test in human intestine S9; type: in vitro ADME
Experimental: 73.21 g of K2HPO4·3H2O (AR grade) and 10.78 g of KH2PO4 (AR grade) were dissolved in ultra-pure water to obtain a final volume of 4000 mL and a final concentration of 100 mM. The pH of the final test solution was adjusted to 7.40±0.10 with H3PO4/KOH.
An Apricot automation workstation was used to add 50 μL/well of HIS9 solution to the corresponding wells of all reaction plates (blank, T0, T5, T15, T30, T45, T60).
An Apricot automation workstation was used to add 48 μL/well of PB to the corresponding wells of every reaction plate (blank, T0, T5, T15, T30, T45, T60) to start the reaction.
The reaction plates were incubated at 37° C., and timer was started. An Apricot automation workstation was used to add 300 μL/well of stop solution (cold acetonitrile containing 200 ng/mL tolbutamide (internal standard)) to the corresponding wells of each reaction plate at the appropriate end time point to stop the reaction.
Each plate was sealed and shaken for 10 minutes. Each plate was centrifuged at 4000 rpm and 4° C. for 20 minutes. After centrifugation, 100 μL of supernatant was transferred from each reaction plate to the corresponding analysis plate, and mixed well with 300 μL of ultra-pure water.

[3] = Stability test in simulated intestinal fluid (SIF); type: in vitro ADME; details: 37° C.
Experimental: 0.136 g of KH2PO4 and 0.2 g of pancreatin were dissolved in water to obtain a final volume of 20 mL. The pH of the test solution was about 6.80±0.05.
Then 200 μL of supernatant was pipetted and mixed completely again with 400 μL of cold acetonitrile containing 200 ng/mL tolbutamide (internal standard). • 7) All samples were centrifuged at 4000 rpm, 4° C. for 20 min. • 8) 60 μL of supernatant was pipetted and mixed completely with 180 μL of ultra-pure water, and the mixture was subjected to LC-MS/MS analysis.

[4] = Caco-2 bi-directional permeability test; type: in vitro ADME; details: human; for metabolised at 2 h, 2 µM: Caco-2, pH 7.4, Compound A concentration 2.00 μM; for metabolised at 2 h, 10 µM: Caco-2, pH 7.4, Compound A concentration 10.0 μM; for metabolised at 2 h, 30 µM: Caco-2, pH 7.4, Compound A concentration 30.0 μM
Experimental: (§1) Caco-2 cell culture: Caco-2 cells (purchased from American Type Culture Collection, ATCC) were inoculated on polyethylene film (PET) of a 96-well culture plate at a concentration of 1×10^5 cells/cm^2. The culture medium was replaced every 4 days until cell confluency to form cell monolayer on day 21 or 28.
(§2) Transport test: Transport buffer used in the test was Hanks' Balanced Salt Solution (HBSS) containing 10 mM 2-[4-(2-hydroxyethyl)-1-piperazinyl]ethanesulfonic acid (HEPES) with a pH of 7.40±0.05. […] The final concentration of DMSO in the incubation system was adjusted to <1%.

Caco-2 cells = experiment: Caco-2 bi-directional permeability test; type: in vitro ADME
Experimental: as §1, §2

[5] = Stability test in simulated gastric fluid (SGF); type: in vitro ADME; details: 37° C.
Experimental: 0.04 g of NaCl and 0.064 g of pepsin were dissolved in 0.14 mL of HCl, and water was added to bring the total volume to 20 mL. The pH of the test solution was about 1.20±0.05.
Then 200 μL of supernatant was pipetted and mixed completely again with 400 μL of cold acetonitrile containing 200 ng/mL tolbutamide (internal standard). 7) All samples were centrifuged at 4000 rpm, 4° C. for 20 min. • 8) 60 μL of supernatant was pipetted and mixed completely with 180 μL of ultra-pure water, and the mixture was subjected to LC-MS/MS analysis.

C57BL/6J mice = experiment: Pharmacodynamic study: OGTT blood glucose and insulin level in C57BL/6J mice; type: in vivo; details: for Blood glucose level at 0 min (pre-glucose) vs vehicle control group: each administration group, 1 hour after administration, dose-response relationship
Experimental: There were 7 groups of mice, with 8 mice in each group. […] Oral glucose tolerance test (OGTT) was performed 1 hour after administration. The blood glucose level in mice was tested before administration (−60 min), before sugar administration (0 min), and at 15 min, 30 min, 60 min, and 120 min after sugar administration. In addition, 40 μl of blood was collected from the tail tip before sugar administration (0 min) and at 15 min after sugar administration to collect the plasma for an insulin level test.
All data was transferred into an Excel document. The blood glucose results were expressed in mg/dL and expressed as MEAN±SEM. Differences between multiple groups were analyzed using Dunnett's method in one-way analysis of variance (ANOVA) or two-way analysis of variance (ANOVA) with Graphpad Prism 8 software for comparison, and the differences were considered statistically significant when the P value was less than 0.05.

[6] = type: physicochemical; details: room temperature
[7] = Dynamic vapour sorption (DVS) test; type: physicochemical; details: 25° C.
Experimental: A dynamic vapour sorption (DVS) test was conducted on crystal form A of the free state and crystal form B of the hydrochloride.
A certain amount of powder was taken and put into a sample pan, and hygroscopicity of the sample was evaluated with DVS according to the following instrument method: […]

[8] = Photostability (direct sunlight) of free state crystal form A; type: physicochemical
Text: The resulting sample was sampled at day 4 and day 15 for HPLC analysis.

[9] = Forced degradation stability test (heat, humidity and heat, light); type: physicochemical; details: light box 10 days
Experimental: About 10 mg of the sample powder was weighed and placed in a transparent vial, an amber vial, and a transparent vial sealed with aluminum foil, respectively. Those vials were placed in a light box for 10 days, with a total illumination of 1.2×10^6 Lux·hr and a near-UV energy not less than 200w·hr/m^2, for photostability evaluation.
The samples were taken at each time point for HPLC and XRPD analysis to evaluate the chemical and physical stability.

[10] = High-temperature stability (60° C.) of free state crystal form A; type: physicochemical
Text: (§3) The resulting sample was sampled at day 6, day 14 and day 34 for HPLC analysis.

[11] = High-humidity stability (90% RH) of free state crystal form A; type: physicochemical
Text: as §3

[12] = read-out: Average conversion rate to parent drug HMS5552 (%) A→B
[13] = read-out: Average conversion rate to parent drug HMS5552 (%) B→A
[14] = Compound A concentration 2.00 μM
[15] = Compound A concentration 10.0 μM, 120 min
[16] = Compound A concentration 30.0 μM, 120 min

## CC(C)C[C@@H](C(=O)Nc1ccn(C[C@@H](O)COC(=O)c2cccnc2)n1)N1CC(Oc2ccccc2Cl)=CC1=O [Compound A, (R)-3-(3-((S)-2-(4-(2-chlorophenoxy)-2-oxo-2,5-dihydro-1H-pyrrol-1-yl)-4-methylpentanamido)-1H-pyrazol-1-yl)-2-hydroxypropyl nicotinate]
[1]
  Metabolism after intravenous injection (in words): metabolized very rapidly
[2]; HIS9 0.5 mg/mL, 37° C., 0 min
  Parent drug HMS5552 (%): 1.1%
[2]; human intestine S9
  Time to complete metabolism and conversion into parent drug HMS5552: ≤ 5 min
[2]; human, s9, pH 7.4, HIS9 0.5 mg/mL, 37° C., 5 min, read-out: Parent drug HMS5552 (%)
  metabolised at 5 min: 80%
[2]; human, s9, pH 7.4, HIS9 0.5 mg/mL, 37° C., 15 min, read-out: Parent drug HMS5552 (%)
  metabolised at 0.25 h: 77.2%
[2]; human, s9, pH 7.4, HIS9 0.5 mg/mL, 37° C., 30 min, read-out: Parent drug HMS5552 (%)
  metabolised at 0.5 h: 79.8%
[2]; human, s9, pH 7.4, HIS9 0.5 mg/mL, 37° C., 45 min, read-out: Parent drug HMS5552 (%)
  metabolised at 0.75 h: 81.2%
[2]; human, s9, pH 7.4, HIS9 0.5 mg/mL, 37° C., 60 min, read-out: Parent drug HMS5552 (%)
  metabolised at 1 h: 90.5%
[3]; generation in SIF, 2 μM, 0 hr
  Parent drug HMS5552 (%): 0.86%
[3]; simulated intestinal fluid, pH 6.8, generation in SIF, 1 hr, read-out: Parent drug HMS5552 (%)
  metabolised at 1 h, 2 µM: 35.6%
[3]; simulated intestinal fluid, pH 6.8, generation in SIF, 2 hr, read-out: Parent drug HMS5552 (%)
  metabolised at 2 h, 2 µM: 46.6%
[3]; simulated intestinal fluid, pH 6.8, generation in SIF, 6 hr, read-out: Parent drug HMS5552 (%)
  metabolised at 6 h, 2 µM: 72.8%
[3]; simulated intestinal fluid, pH 6.8, generation in SIF, 24 hr, read-out: Parent drug HMS5552 (%)
  metabolised at 24 h, 2 µM: 73.4%
[4]; [12]
  metabolised at 2 h, 2 µM: 26.5%
  metabolised at 2 h, 10 µM: 37.4%
  metabolised at 2 h, 30 µM: 26.8%
[4]; [13]
  metabolised at 2 h, 2 µM: 5.8%
  metabolised at 2 h, 10 µM: 5.6%
  metabolised at 2 h, 30 µM: 3.4%
Caco-2 cells; [14]
  Average recovery rate (%) A→B: 52.9%
  Average recovery rate (%) B→A: 87.1%
  The average apparent permeability Papp A→B: 0.02977 10^−6 cm/s
Caco-2 cells; [15]
  Average recovery rate (%) A→B: 37.5%
  Average recovery rate (%) B→A: 81.6%
  The average apparent permeability Papp A→B: 0.03187 10^−6 cm/s
Caco-2 cells; [16]
  Average recovery rate (%) B→A: 82.2%
  The average apparent permeability Papp A→B: 0.04322 10^−6 cm/s
[5]; generation in SGF, 2 μM, 0 hr
  Parent drug HMS5552 (%): 0.92%
[5]; simulated gastric fluid, pH 1.2, generation in SGF, 1 hr, read-out: Parent drug HMS5552 (%)
  metabolised at 1 h, 2 µM: 0.86%
[5]; simulated gastric fluid, pH 1.2, generation in SGF, 2 hr, read-out: Parent drug HMS5552 (%)
  metabolised at 2 h, 2 µM: 0.87%
[5]; simulated gastric fluid, pH 1.2, generation in SGF, 6 hr, read-out: Parent drug HMS5552 (%)
  metabolised at 6 h, 2 µM: 1.02%
[5]; simulated gastric fluid, pH 1.2, generation in SGF, 24 hr, read-out: Parent drug HMS5552 (%)
  metabolised at 24 h, 2 µM: 1.63%
C57BL/6J mice; oral 18.4 mg/kg
  Insulin level at 15 min vs corresponding dose group of HMS5552: significantly higher than that of the corresponding dose group of HMS5552
  Insulin level at 15 min vs vehicle control group: significantly higher than that of the vehicle control group
C57BL/6J mice; oral 49.1 mg/kg
  Insulin level at 15 min vs vehicle control group: significantly higher than that of the vehicle control group
C57BL/6J mice; oral 49.1 mg/kg, at 15 min, 30 min, 60 min and 120 min after glucose
  OGTT blood glucose values vs vehicle control group: significantly lower than that of the vehicle control group
C57BL/6J mice; oral 49.1 mg/kg, at 30 min, 60 min and 120 min after glucose
  OGTT blood glucose values vs HMS5552-40 mg/kg group: significantly lower than that of the HMS5552-40 mg/kg group
C57BL/6J mice; oral
  Blood glucose level at 0 min (pre-glucose) vs vehicle control group: generally lower than that of the vehicle control group
C57BL/6J mice; oral, high-dose group
  Insulin level at 0 min vs vehicle control group and HMS5552 high-dose group: significantly higher than that of the vehicle control group and the HMS5552 high-dose group
C57BL/6J mice; oral, medium and high dose groups
  OGTT AUC0-120min vs corresponding dose groups of HMS5552: significantly lower than those of the corresponding dose groups of HMS5552

## CC(C)C[C@@H](C(=O)Nc1ccn(C[C@@H](O)CO)n1)N1CC(Oc2ccccc2Cl)=CC1=O [HMS5552, (S)-2-(4-(2-chlorophenoxy)-2-oxo-2,5-dihydro-1H-pyrrol-1-yl)-N-(1-((R)-2,3-dihydroxypropyl)-1H-pyrazol-3-yl)-4-methylpentanamide, reference compound]
C57BL/6J mice; oral 40 mg/kg, at 30 min, 60 min and 120 min after glucose
  OGTT blood glucose values vs vehicle control group: significantly lower than that of the vehicle control group
C57BL/6J mice; oral
  Blood glucose level at 0 min (pre-glucose) vs vehicle control group: generally lower than that of the vehicle control group
C57BL/6J mice; oral, each dose group
  Insulin levels at 0 min and 15 min vs vehicle control group: slightly higher than those in the vehicle control group, without significant difference

## CC(C)C[C@@H](C(=O)Nc1ccn(C[C@@H](O)COC(=O)c2cccnc2)n1)N1CC(Oc2ccccc2Cl)=CC1=O [crystal form A of the free state, (R)-3-(3-((S)-2-(4-(2-chlorophenoxy)-2-oxo-2,5-dihydro-1H-pyrrol-1-yl)-4-methylpentanamido)-1H-pyrazol-1-yl)-2-hydroxypropyl nicotinate]
[6]; DMAc
  Solubility (mg/mL): S>40.0 mg/mL
[6]; DMSO
  Solubility (mg/mL): S>42.0 mg/mL
[6]; MeOH
  Solubility (mg/mL): S>42.0 mg/mL
[6]; NMP
  Solubility (mg/mL): S>40.0 mg/mL
[6]; n-Heptane
  Solubility (mg/mL): S<1.1 mg/mL
[7]; relative humidity of 95%
  Moisture-induced weight gain: less than 0.7%
[7]; relative humidity of less than or equal to 90%
  Moisture-induced weight gain: less than 0.5%
[8]; 0 hour
  Purity (Area %): 98.17 Area %
[8]; direct sunlight
  Photostability (HPLC), conclusion: still stable after being placed under sunlight for 15 days
[8]; direct sunlight, Day 4
  Purity (Area %): 99.07 Area %
[8]; direct sunlight, Day 15
  Purity (Area %): 99.10 Area %
[9]; 50° C., 80° C., 40° C./75% RH (unsealed), 1 day, 2 weeks, 4 weeks
  Crystalline form after forced degradation (XRPD): does not change
[9]; […]10^6 Lux·hr, near-UV not less than 200w·hr/m^2
  Effect of light on stability: no effect on the stability
[10]; 0 h
  Purity (Area %): 98.17 Area %
[10]; 60° C. oven without cover
  High-temperature stability (HPLC), conclusion: still stable after being placed at 60 °C for 14 days
[10]; 60° C., Day 6, without cover
  Purity (Area %): 99.03 Area %
[10]; 60° C., Day 14, without cover
  Purity (Area %): 99.11 Area %
[11]; 0 hour
  Purity (Area %): 98.17 Area %
[11]; 90% RH without cover
  High-humidity stability (HPLC), conclusion: still stable after being placed under the condition of 90% relative humidity for 14 days
[11]; 90% RH, Day 6, without cover
  Purity (Area %): 98.99 Area %
[11]; 90% RH, Day 14, without cover
  Purity (Area %): 99.09 Area %
